Data on 13 compounds can be found in article PMC9228641 (Journal of medicinal chemistry, 2021).

The test system of experiment [1] is HCV replicon D168A variant. Description: microbe, parasite or virus in culture. The note with it: Hepatitis C virus, Huh-7, 96 h, read-out: EC50 against D168A variant.
The test system of experiment [2] is HCV replicon D168A variant.
Experiment [3] deals with WT HCV Con1 (GT-1b) reporter replicon containing the H77 (GT-1a) NS3 protease region. Description: Antiviral replicon assay, WT HCV. The experiment is classed as cell-based, Hepatitis C virus. The note with it: for fold improvement in antiviral activity against WT HCV: more active, relative to 36. On the technique in general: In antiviral work, replicon cells carry a viral genome segment that copies itself.

Experiment [4] concerns HCV replicons. Description: Replicon assays, variant not given. It counts as cell-based, Hepatitis C virus. Particulars: more potent than 38.
For experiment [5], the system named is GT-3a NS3/4A protease. Description: Enzyme inhibition assay. The experiment is classed as biochemical, Hepatitis C virus. The note with it: relative to 12.
In experiment [6] the test system is HCV GT-3a replicon, S52/SG-Feo SHI. The note with it: relative to 12.
The mark [7] stands for this setting: less active, compared to the (S)-stereoisomer 30.

Where two headings read alike, the source gives them in different places.

Regarding `COc1ccc2nc(C)c(O[C@@H]3C[C@H]4C(=O)N[C@]5(C(=O)NS(=O)(=O)C6(C)CC6)C[C@H]5/C=C/CCCCC[C@H](NC(=O)OC5C[C@@H]6C[C@@H]6C5)C(=O)N4C3)nc2c1` (some centres unmarked) [Compound 20], the EC50 in experiment [1] was determined as 0.5 nM.
For the compound `COc1ccc2nc(O[C@@H]3C[C@H]4C(=O)N[C@]5(C(=O)NS(=O)(=O)C6(C)CC6)C[C@H]5C=CCCCCC[C@H](NC(=O)OCC5(C(F)(F)F)CC5)C(=O)N4C3)c(C(F)(F)F)nc2c1` (stereo in doubt) [Compound 40, (1-(Trifluoromethyl)cyclopropyl)methyl ((2R,6S,13aS,14aR,16aS,Z)-2-((6-methoxy-3-(trifluoromethyl)quinoxalin-2-yl)oxy)-14a-(((1-methylcyclopropyl)sulfonyl)carbamoyl)-5,16-dioxo-1,2,3,5,6,7,8,9,10,11,13a,14,14a,15,16,16a-hexadecahydrocyclopropa[e]pyrrolo[1,2-a][1,4]diazacyclopentadecin-6-yl)carbamate], in experiment [2] (more active, relative to 36), the “fold more active against the D168A variant” value stood at 2 fold. Besides, in experiment [3], the “fold improvement in antiviral activity against WT HCV” value was 2 fold.
`COc1ccc2nc(C)c(O[C@@H]3C[C@H]4C(=O)N[C@]5(C(=O)NS(=O)(=O)C6(C)CC6)C[C@H]5C=CCCCCC[C@H](NC(=O)OC(C)(C)C(F)(F)F)C(=O)N4C3)nc2c1` (stereo in doubt) [Compound 12, 1,1,1-Trifluoro-2-methylpropan-2-yl ((2R,6S,13aS,14aR,16aS,Z)-2-((7-methoxy-3-methylquinoxalin-2-yl)oxy)-14a-(((1-methylcyclopropyl)sulfonyl)carbamoyl)-5,16-dioxo-1,2,3,5,6,7,8,9,10,11,13a,14,14a,15,16,16a-hexadecahydrocyclopropa[e]pyrrolo[1,2-a][1,4]diazacyclopentadecin-6-yl)carbamate]: the EC50 is less than 5 nM in experiment [1] and less than 5 nM in experiment [3] (Hepatitis C virus, GT1A|GT1B, Huh-7, 96 h, read-out: EC50 against WT HCV).
With `COc1ccc2nc(C)c(O[C@@H]3C[C@H]4C(=O)N[C@]5(C(=O)NS(=O)(=O)C6(C)CC6)C[C@H]5/C=C/CCCCC[C@H](NC(=O)OC5CCC5)C(=O)N4C3)nc2c1` [Compound 21], the EC50 in experiment [1] was less than 5 nM.
In the case of `CCC(C)(C)OC(=O)N[C@H]1CCCCCC=C[C@@H]2C[C@@]2(C(=O)NS(=O)(=O)C2(C)CC2)NC(=O)[C@@H]2C[C@@H](Oc3nc4ccc(OC)cc4nc3C(F)(F)F)CN2C1=O` (stereo in doubt) [Compound 28, tert-Pentyl ((2R,6S,13aS,14aR,16aS,Z)-2-((6-methoxy-3-(trifluoromethyl)quinoxalin-2-yl)oxy)-14a-(((1-methylcyclopropyl)sulfonyl)carbamoyl)-5,16-dioxo-1,2,3,5,6,7,8,9,10,11,13a,14,14a,15,16,16a-hexadecahydrocyclopropa[e]pyrrolo[1,2-a][1,4]diazacyclopentadecin-6-yl)carbamate], in experiment [2] (lower, relative to 3), the “fold lower antiviral activity against the D168A variant” value was found to be 2 fold.
In the case of `COc1ccc2nc(O[C@@H]3C[C@H]4C(=O)N[C@]5(C(=O)NS(=O)(=O)C6(C)CC6)C[C@H]5C=CCCCCC[C@H](NC(=O)O[C@H](C)C(C)C)C(=O)N4C3)c(C(F)(F)F)nc2c1` (stereo in doubt) [Compound 31, (R)-3-Methylbutan-2-yl ((2R,6S,13aS,14aR,16aS,Z)-2-((6-methoxy-3-(trifluoromethyl)quinoxalin-2-yl)oxy)-14a-(((1-methylcyclopropyl)sulfonyl)carbamoyl)-5,16-dioxo-1,2,3,5,6,7,8,9,10,11,13a,14,14a,15,16,16a-hexadecahydrocyclopropa[e]pyrrolo[1,2-a][1,4]diazacyclopentadecin-6-yl)carbamate], the “fold less active against D168A replicon” value in experiment [2] (setting [7]) turned out to be 2 fold. In experiment [3] (setting [7]), the “fold less active against WT replicon” value came to 2 fold.
As to `COc1ccc2nc(O[C@@H]3C[C@H]4C(=O)N[C@]5(C(=O)NS(=O)(=O)C6(C)CC6)C[C@H]5C=CCCCCC[C@H](NC(=O)O[C@H](C)C(F)(F)F)C(=O)N4C3)c(C(F)(F)F)nc2c1` (stereo in doubt) [Compound 39, (R)-1,1,1-Trifluoropropan-2-yl ((2R,6S,13aS,14aR,16aS,Z)-2-((6-methoxy-3-(trifluoromethyl)quinoxalin-2-yl)oxy)-14a-(((1-methylcyclopropyl)sulfonyl)carbamoyl)-5,16-dioxo-1,2,3,5,6,7,8,9,10,11,13a,14,14a,15,16,16a-hexadecahydrocyclopropa[e]pyrrolo[1,2-a][1,4]diazacyclopentadecin-6-yl)carbamate], in experiment [4], the “fold more potent in replicon assays” value is listed as “at least 2 fold”.
As to `COc1ccc2nc(C)c(O[C@@H]3C[C@H]4C(=O)N[C@]5(C(=O)NS(=O)(=O)C6(C)CC6)C[C@H]5C=CCCCCC[C@H](NC(=O)OC5(C(F)(F)F)CCCC5)C(=O)N4C3)nc2c1` (stereo in doubt) [Compound 24, 1-(Trifluoromethyl)cyclopentyl ((2R,6S,13aS,14aR,16aS,Z)-2-((7-methoxy-3-methylquinoxalin-2-yl)oxy)-14a-(((1-methylcyclopropyl)sulfonyl)carbamoyl)-5,16-dioxo-1,2,3,5,6,7,8,9,10,11,13a,14,14a,15,16,16a-hexadecahydrocyclopropa[e]pyrrolo[1,2-a][1,4]diazacyclopentadecin-6-yl)carbamate], the “fold improvement in potency against the D168A variant, replicon assay” value in experiment [2] (improvement, relative to the parent 18) was determined as 2 fold.
Regarding `COc1ccc2nc(C)c(O[C@@H]3C[C@H]4C(=O)N[C@]5(C(=O)NS(=O)(=O)C6(C)CC6)C[C@H]5C=CCCCCC[C@H](NC(=O)OCC5(C(F)(F)F)CC5)C(=O)N4C3)nc2c1` (stereo in doubt) [Compound 15, (1-(Trifluoromethyl)cyclopropyl)methyl ((2R,6S,13aS,14aR,16aS,Z)-2-((7-methoxy-3-methylquinoxalin-2-yl)oxy)-14a-(((1-methylcyclopropyl)sulfonyl)carbamoyl)-5,16-dioxo-1,2,3,5,6,7,8,9,10,11,13a,14,14a,15,16,16a-hexadecahydrocyclopropa[e]pyrrolo[1,2-a][1,4]diazacyclopentadecin-6-yl)carbamate], the “fold lower activity against GT-3a, enzyme assay” value in experiment [5] is 2 fold. Also, in experiment [6], the “fold lower activity against GT-3a, replicon assay” value was found to be 2 fold.
For the compound `COc1ccc2nc(O[C@@H]3C[C@H]4C(=O)N[C@]5(C(=O)NS(=O)(=O)C6(C)CC6)C[C@H]5C=CCCCCC[C@H](NC(=O)OC5(C(F)(F)F)CCCC5)C(=O)N4C3)c(C(F)(F)F)nc2c1` (stereo in doubt) [Compound 48, 1-(Trifluoromethyl)cyclopentyl ((2R,6S,13aS,14aR,16aS,Z)-2-((6-methoxy-3-(trifluoromethyl)quinoxalin-2-yl)oxy)-14a-(((1-methylcyclopropyl)sulfonyl)carbamoyl)-5,16-dioxo-1,2,3,5,6,7,8,9,10,11,13a,14,14a,15,16,16a-hexadecahydrocyclopropa[e]pyrrolo[1,2-a][1,4]diazacyclopentadecin-6-yl)carbamate], the “fold better potency against the D168A variant” value in experiment [2] (compared to 42) is on record as 3 fold.
Take `COc1ccc2nc(C)c(O[C@@H]3C[C@H]4C(=O)N[C@]5(C(=O)NS(=O)(=O)C6(C)CC6)C[C@H]5C=CCCCCC[C@H](NC(=O)O[C@@H](C)C(F)(F)F)C(=O)N4C3)nc2c1` (stereo in doubt) [Compound 13, (S)-1,1,1-Trifluoropropan-2-yl ((2R,6S,13aS,14aR,16aS,Z)-2-((7-methoxy-3-methylquinoxalin-2-yl)oxy)-14a-(((1-methylcyclopropyl)sulfonyl)carbamoyl)-5,16-dioxo1,2,3,5,6,7,8,9,10,11,13a,14,14a,15,16,16a-hexadecahydrocyclopropa[e]pyrrolo[1,2-a][1,4]diazacyclopentadecin-6-yl)carbamate]: the concentration giving a half-maximal response (EC50) in experiment [1] is less than 10 nM.
`COc1ccc2nc(O[C@@H]3C[C@H]4C(=O)N[C@]5(C(=O)NS(=O)(=O)C6(C)CC6)C[C@H]5C=CCCCCC[C@H](NC(=O)OCC5(C)CC5(F)F)C(=O)N4C3)c(C(F)(F)F)nc2c1` (stereo in doubt) [Compound 41, (2,2-Difluoro-1-methylcyclopropyl)methyl ((2R,6S,13aS,14aR,16aS,Z)-2-((6-methoxy-3-(trifluoromethyl)quinoxalin-2-yl)oxy)-14a-(((1-methylcyclopropyl)sulfonyl)carbamoyl)-5,16-dioxo-1,2,3,5,6,7,8,9,10,11,13a,14,14a,15,16,16a-hexadecahydrocyclopropa[e]pyrrolo[1,2-a][1,4]diazacyclopentadecin-6-yl)carbamate]: the “fold improvement in antiviral activity against WT HCV” value in experiment [3] came out at 2 fold.
As to `COc1ccc2nc(C)c(O[C@@H]3C[C@H]4C(=O)N[C@]5(C(=O)NS(=O)(=O)C6(C)CC6)C[C@H]5C=CCCCCC[C@H](NC(=O)O[C@H](C)C(F)(F)F)C(=O)N4C3)nc2c1` (stereo in doubt) [Compound 14, (R)-1,1,1-Trifluoropropan-2-yl ((2R,6S,13aS,14aR,16aS,Z)-2-((7-methoxy-3-methylquinoxalin-2-yl)oxy)-14a-(((1-methylcyclopropyl)sulfonyl)carbamoyl)-5,16-dioxo-1,2,3,5,6,7,8,9,10,11,13a,14,14a,15,16,16a-hexadecahydrocyclopropa[e]pyrrolo[1,2-a][1,4]diazacyclopentadecin-6-yl)carbamate], the “fold better potency against the D168A variant” value in experiment [2] (relative to 13) came out at 2 fold.

As a reminder, the EC50 is the concentration at which the effect is half-maximal.
